# Laboratory results published in PubChem BioAssay AID330 (DTP/NCI, 2004).
# Toxic doses and inconclusive results are not listed.
# Test system: P388 leukemia ip, CD2F1 mice, survival T/C
# Experiment: NCI In Vivo Anticancer Drug Screen. Data for tumor model P388 Leukemia (intraperitoneal) in CD2F1 (CDF1) mice
# Settings: endpoint: median survival time, higher = longer survival
# Summary of the method: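 Mice carrying the transplanted tumor received test compound or vehicle. Survival was recorded in each group, and the value is the treated-group measurement divided by that of the vehicle-treated control group.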
# [1] = dose: 100.0 mg/kg/injection, schedule: Q01DX009 (ip), vehicle: saline with Tween-80
# [2] = dose: 200.0 mg/kg/injection, schedule: Q01DX009 (ip), vehicle: saline with Tween-80
# [3] = dose: 50.0 mg/kg/injection, schedule: Q04DX002 (ip), vehicle: saline with Tween-80
# [4] = dose: 100.0 mg/kg/injection, schedule: Q04DX002 (ip), vehicle: saline with Tween-80
# [5] = dose: 200.0 mg/kg/injection, schedule: Q04DX002 (ip), vehicle: saline with Tween-80
# [6] = dose: 60.0 mg/kg/injection, schedule: Q01DX005 (ip), vehicle: saline with Tween-80
# [7] = dose: 120.0 mg/kg/injection, schedule: Q01DX005 (ip), vehicle: saline with Tween-80
# [8] = dose: 240.0 mg/kg/injection, schedule: Q01DX005 (ip), vehicle: saline with Tween-80
# [9] = dose: 50.0 mg/kg/injection, schedule: Q01DX005 (ip), vehicle: Klucel (hydroxypropylcellulose) (HPC)
# [10] = dose: 100.0 mg/kg/injection, schedule: Q01DX005 (ip), vehicle: Klucel (hydroxypropylcellulose) (HPC)
# [11] = dose: 200.0 mg/kg/injection, schedule: Q01DX005 (ip), vehicle: Klucel (hydroxypropylcellulose) (HPC)
smiles,measurement,setting,value
CNC(=O)c1cccc2c(Nc3ccc(NS(C)(=O)=O)cc3OC)c3cccc(C)c3nc12,T/C,"dose: 1.56 mg/kg/injection, schedule: Q01DX005 (ip), vehicle: water",163 % of control
same,T/C,"dose: 3.0 mg/kg/injection, schedule: Q01DX005 (ip), vehicle: water",175 % of control
same,T/C,"dose: 3.12 mg/kg/injection, schedule: Q01DX005 (ip), vehicle: water",169 % of control
same,T/C,"dose: 6.25 mg/kg/injection, schedule: Q01DX005 (ip), vehicle: water",218 % of control
same,T/C,"dose: 12.5 mg/kg/injection, schedule: Q01DX005 (oral), vehicle: water",151 % of control
Cc1ccc(NC(=O)c2ccc(Cl)cc2Cl)cc1C,T/C,[1],95 % of control
same,T/C,[2],104 % of control
same,T/C,"dose: 400.0 mg/kg/injection, schedule: Q01DX009 (ip), vehicle: saline with Tween-80",100 % of control
CSC(C(=O)c1ccccc1)c1ccccc1 (stereo unspecified),T/C,"dose: 25.0 mg/kg/injection, schedule: Q01DX009 (ip), vehicle: saline + alcohol",87 % of control
same,T/C,"dose: 50.0 mg/kg/injection, schedule: Q01DX009 (ip), vehicle: saline + alcohol",96 % of control
same,T/C,"dose: 100.0 mg/kg/injection, schedule: Q01DX009 (ip), vehicle: saline + alcohol",112 % of control
OC(Cc1cnc2ccccc2c1)(c1ccccc1)c1ccccc1,T/C,[3],111 % of control
same,T/C,[4],96 % of control
same,T/C,[5],88 % of control
Nc1ccc(NCC2CCCN3CCCCC23)c2c(=O)c3ccccc3sc12 (stereo unspecified),T/C,"dose: 13.25 mg/kg/injection, schedule: Q01DX005 (ip), vehicle: saline with Tween-80",104 % of control
same,T/C,"dose: 26.5 mg/kg/injection, schedule: Q01DX005 (ip), vehicle: saline with Tween-80",101 % of control
same,T/C,"dose: 53.0 mg/kg/injection, schedule: Q01DX005 (ip), vehicle: saline with Tween-80",103 % of control
same,T/C,"dose: 90.0 mg/kg/injection, schedule: Q01DX005 (ip), vehicle: saline with Tween-80",94 % of control
same,T/C,"dose: 106.0 mg/kg/injection, schedule: Q01DX005 (ip), vehicle: saline with Tween-80",100 % of control
same,T/C,"dose: 180.0 mg/kg/injection, schedule: Q01DX005 (ip), vehicle: saline with Tween-80",94 % of control
same,T/C,"dose: 360.0 mg/kg/injection, schedule: Q01DX005 (ip), vehicle: saline with Tween-80",95 % of control
O=C(CCl)N1CCN(C(c2ccccc2)c2ccccc2)CC1,T/C,[6],99 % of control
same,T/C,[7],100 % of control
same,T/C,[8],99 % of control
CCN(CC)Cc1c(O)ccc2c3c(c(=O)oc12)CCCC3,T/C,"dose: 8.0 mg/kg/injection, schedule: Q01DX009 (ip), vehicle: Klucel (hydroxypropylcellulose) (HPC)",101 % of control
same,T/C,"dose: 16.0 mg/kg/injection, schedule: Q01DX009 (ip), vehicle: Klucel (hydroxypropylcellulose) (HPC)",102 % of control
same,T/C,"dose: 32.0 mg/kg/injection, schedule: Q01DX009 (ip), vehicle: Klucel (hydroxypropylcellulose) (HPC)",101 % of control
O=C1CCC(=O)N1CN1CCCCC1,T/C,"dose: 60.0 mg/kg/injection, schedule: Q01DX005 (ip), vehicle: saline",93 % of control
same,T/C,"dose: 120.0 mg/kg/injection, schedule: Q01DX005 (ip), vehicle: saline",113 % of control
same,T/C,"dose: 240.0 mg/kg/injection, schedule: Q01DX005 (ip), vehicle: saline",118 % of control
C=C1CC(C)OC1=O (stereo unspecified),T/C,[4],103 % of control
same,T/C,[5],111 % of control
C=CC(=O)OCCCN(CCCC)CCCC,T/C,"dose: 25.0 mg/kg/injection, schedule: Q01DX005 (ip), vehicle: Klucel (hydroxypropylcellulose) (HPC)",100 % of control
same,T/C,[9],95 % of control
same,T/C,[10],105 % of control
same,T/C,[11],105 % of control
COC(=O)C#CC(N)=O,T/C,"dose: 1.25 mg/kg/injection, schedule: Q01DX009 (ip), vehicle: saline sonified",113 % of control
same,T/C,"dose: 1.65 mg/kg/injection, schedule: Q01DX009 (ip), vehicle: saline with Tween-80",118 % of control
same,T/C,"dose: 2.5 mg/kg/injection, schedule: Q01DX009 (ip), vehicle: saline with Tween-80",118 % of control
same,T/C,"dose: 3.75 mg/kg/injection, schedule: Q01DX009 (ip), vehicle: saline with Tween-80",118 % of control
same,T/C,"dose: 5.0 mg/kg/injection, schedule: Q01DX009 (ip), vehicle: saline sonified",122 % of control
COc1ccc(NP2(=O)N(Cc3ccc(Cl)cc3)CCCN2Cc2ccc(Cl)cc2)cc1,T/C,[9],100 % of control
same,T/C,[10],88 % of control
CC(=O)c1c(OCC(O)CNC(C)C)ccc2c(C)cc(=O)oc12 (stereo unspecified),T/C,"dose: 50.0 mg/kg/injection, schedule: Q01DX005 (ip), vehicle: saline with Tween-80",100 % of control
same,T/C,"dose: 100.0 mg/kg/injection, schedule: Q01DX005 (ip), vehicle: saline with Tween-80",92 % of control
C[C@@]12CCCC1=[N+]1CCc3ccccc3[C@@H]1CC2=O,T/C,"dose: 100.0 mg/kg/injection, schedule: Q04DX002 (ip), vehicle: Klucel (hydroxypropylcellulose) (HPC)",101 % of control
same,T/C,"dose: 200.0 mg/kg/injection, schedule: Q04DX002 (ip), vehicle: Klucel (hydroxypropylcellulose) (HPC)",102 % of control
COc1ccc(OC)c2cc3c(cc12)C(=O)c1ccccc1C3=O,T/C,[9],87 % of control
same,T/C,[10],88 % of control
same,T/C,[11],91 % of control
C=CC(Br)CCCBr (stereo unspecified),T/C,"dose: 12.5 mg/kg/injection, schedule: Q04DX002 (ip), vehicle: saline with Tween-80",106 % of control
same,T/C,"dose: 25.0 mg/kg/injection, schedule: Q04DX002 (ip), vehicle: saline with Tween-80",112 % of control
same,T/C,[3],101 % of control
same,T/C,[4],104 % of control
CC(=O)/C=C/C=C\C=C/N=C(c1ccccc1)c1ccccc1,T/C,"dose: 50.0 mg/kg/injection, schedule: Q04DX003 (ip), vehicle: saline with Tween-80",95 % of control
same,T/C,"dose: 100.0 mg/kg/injection, schedule: Q04DX003 (ip), vehicle: saline with Tween-80",93 % of control
same,T/C,"dose: 200.0 mg/kg/injection, schedule: Q04DX003 (ip), vehicle: saline with Tween-80",93 % of control
CCCCCCCCCC1c2[nH]c3ccccc3c2C(=O)NN1C(C)=O (stereo unspecified),T/C,"dose: 100.0 mg/kg/injection, schedule: Q01DX001 (ip), vehicle: Klucel (hydroxypropylcellulose) (HPC)",98 % of control
same,T/C,"dose: 200.0 mg/kg/injection, schedule: Q01DX001 (ip), vehicle: Klucel (hydroxypropylcellulose) (HPC)",98 % of control
same,T/C,"dose: 400.0 mg/kg/injection, schedule: Q01DX001 (ip), vehicle: Klucel (hydroxypropylcellulose) (HPC)",104 % of control
CCOc1cc(/C=N\Nc2nnc(C)n2N)c(C)cc1N(CCCl)CCCl,T/C,"dose: 0.22 mg/kg/injection, schedule: Q01DX009 (ip), vehicle: saline with Tween-80",110 % of control
same,T/C,"dose: 0.33 mg/kg/injection, schedule: Q01DX009 (ip), vehicle: saline with Tween-80",105 % of control
same,T/C,"dose: 0.5 mg/kg/injection, schedule: Q01DX009 (ip), vehicle: saline with Tween-80",110 % of control
same,T/C,"dose: 0.75 mg/kg/injection, schedule: Q01DX009 (ip), vehicle: saline with Tween-80",120 % of control
same,T/C,"dose: 1.25 mg/kg/injection, schedule: Q04DX003 (ip), vehicle: saline",100 % of control
same,T/C,"dose: 2.0 mg/kg/injection, schedule: Q01DX009 (ip), vehicle: saline with Tween-80",160 % of control
same,T/C,"dose: 2.5 mg/kg/injection, schedule: Q04DX003 (ip), vehicle: saline",100 % of control
same,T/C,"dose: 4.0 mg/kg/injection, schedule: Q01DX009 (ip), vehicle: saline with Tween-80",185 % of control
same,T/C,"dose: 5.0 mg/kg/injection, schedule: Q04DX003 (ip), vehicle: saline",103 % of control
Cc1ccc2c(c1)nc(-c1ccccn1)n2CCc1ccncc1,T/C,"dose: 50.0 mg/kg/injection, schedule: Q01DX001 (ip), vehicle: saline with Tween-80",95 % of control
same,T/C,"dose: 100.0 mg/kg/injection, schedule: Q01DX001 (ip), vehicle: saline with Tween-80",96 % of control
same,T/C,"dose: 200.0 mg/kg/injection, schedule: Q01DX001 (ip), vehicle: saline with Tween-80",101 % of control
O=C1c2ccccc2C(=O)c2c1cc1c(c2O)OCO1,T/C,[6],86 % of control
same,T/C,[7],89 % of control
same,T/C,[8],91 % of control
CCCCN1CCC2(C)c3cc(O)ccc3CC1C2CC (stereo unspecified),T/C,"dose: 7.5 mg/kg/injection, schedule: Q01DX005 (ip), vehicle: Klucel (hydroxypropylcellulose) (HPC)",101 % of control
same,T/C,"dose: 15.0 mg/kg/injection, schedule: Q01DX005 (ip), vehicle: Klucel (hydroxypropylcellulose) (HPC)",100 % of control
same,T/C,"dose: 30.0 mg/kg/injection, schedule: Q01DX005 (ip), vehicle: Klucel (hydroxypropylcellulose) (HPC)",97 % of control
CC(C)(C)c1ccc(N2CSC(=S)N(c3ccc(C(C)(C)C)cc3)C2)cc1,T/C,"dose: 50.0 mg/kg/injection, schedule: Q01DX009 (ip), vehicle: saline with Tween-80",96 % of control
same,T/C,[1],89 % of control
same,T/C,[2],90 % of control
